Key:
Details in all cases: scale 0 to 100
SETFA [1] = test: greenhouse pre-emergence treatment, herbicidal action against SETFA; format: in vivo, Setaria faberi
Source text: (§1) The seeds of the test plants were sown separately for each species. For the pre-emergence treatment, the active ingredients, which had been suspended or emulsified in water, were applied directly after sowing by means of finely distributing nozzles. The containers were irrigated gently to promote germination and growth and subsequently covered with transparent plastic hoods until the plants had emerged. This cover caused uniform germination of the test plants, unless this has been impaired by the active ingredients. The respective benzoxazinone of formula I was formulated as a 5% by weight strength emulsion concentrate, and the safener of formula II as a 5% by weight emulsion concentrate. Optional component C can be used in its appropriate available formulation type. The benzoxazinone of formula I, the safener of formula II, and optional component C were introduced to the spray liquid with the amount of solvent system used for applying the active compound. The test period extended over 20 days. During this time, the plants were tended, and their response to the treatments with active compound was evaluated. Depending on the species, the plants were kept at 10-25° C. or 20-35° C. During the test period the plants were tended, and their response to the individual treatments was evaluated. Evaluation was carried out using a scale from 0 to 100. 100 means no emergence of the plants, or complete destruction of at least the aerial moieties, and 0 means no damage, or normal course of growth. A good herbicidal activity is given at values of at least 70 and a very good herbicidal activity is given at values of at least 85.

ORYSA [2] = test: greenhouse pre-emergence treatment, damage to crop plant ORYSA; format: in vivo, Oryza sativa
Source text: as §1, with “85. A safener action is present if the damage to the crop plant caused by a mixture according to the present invention which contains a benzoxazinone of formula I and a safener of formula II is less than the damage caused when the benzoxazinone of formula I (optionally in mixture with a further herbicide C) according to the present invention is used without the safener of formula II.” for “85.”

ZEAMX = test: greenhouse pre-emergence treatment, damage to crop plant ZEAMX; format: in vivo, Zea mays
Source text: as §1, with “85. A safener action is present if the damage to the crop plant caused by a mixture according to the present invention which contains a benzoxazinone of formula I and a safener of formula II is less than the damage caused when the benzoxazinone of formula I (optionally in mixture with a further herbicide C) according to the present invention is used without the safener of formula II.” for “85.”

SETFA [3] = test: greenhouse post-emergence treatment, herbicidal action against SETFA; format: in vivo, Setaria faberi
Source text: (§2) The seeds of the test plants were sown separately for each species. For the post-emergence treatment, the test plants were first grown to a height of 1 to 15 cm, depending on the plant habit, and only then treated with the active ingredients which had been suspended or emulsified in water. For this purpose, the test plants were either sown directly and grown in the same containers, or they were first grown separately as seedlings and transplanted into the test containers a few days prior to treatment. The respective benzoxazinone of formula I was formulated as a 5% by weight strength emulsion concentrate, and the safener of formula II as a 5% by weight emulsion concentrate. Optional component C can be used in its appropriate available formulation type. The benzoxazinone of formula I, the safener of formula II, and optional component C were introduced to the spray liquid with the amount of solvent system used for applying the active compound. The test period extended over 20 days. During this time, the plants were tended, and their response to the treatments with active compound was evaluated. Depending on the species, the plants were kept at 10-25° C. or 20-35° C. During the test period the plants were tended, and their response to the individual treatments was evaluated. Evaluation was carried out using a scale from 0 to 100. […]

TRZAW = test: greenhouse pre-emergence treatment, damage to crop plant TRZAW; format: in vivo
Source text: as §1, with “85. A safener action is present if the damage to the crop plant caused by a mixture according to the present invention which contains a benzoxazinone of formula I and a safener of formula II is less than the damage caused when the benzoxazinone of formula I (optionally in mixture with a further herbicide C) according to the present invention is used without the safener of formula II.” for “85.”

ORYSA [4] = test: greenhouse post-emergence treatment, damage to crop plant ORYSA; format: in vivo, Oryza sativa
Source text: as §2

[5] = Example 1, I.a.35 50 g/ha alone
[6] = Example 2, I.a.35 25 g/ha alone
[7] = Example 3, I.a.35 12.5 g/ha alone
[8] = Example 4, I.a.35 25 g/ha alone
[9] = Example 1, II.a.12 150 g/ha alone
[10] = Example 2, II.a.12 75 g/ha alone
[11] = Example 3, II.a.12 150 g/ha alone
[12] = Example 4, II.a.12 75 g/ha alone

C#CCN1C(=O)C(F)(F)Oc2cc(F)c(-n3c(=O)n(C)c(=S)n(C)c3=O)cc21 [I.a.35, 1,5-dimethyl-6-thioxo-3-(2,2,7-trifluoro-3-oxo-4-(prop-2-ynyl)-3,4-dihydro-2H-benzo[b][1,4]oxazin-6-yl)-1,3,5-triazinane-2,4-dione]
30: damage to crop plant ORYSA (ORYSA [2]; [7])
90: herbicidal action against SETFA (SETFA [1]; [7])
60: damage to crop plant TRZAW (TRZAW; [6]) | damage to crop plant ORYSA (ORYSA [4]; [8])
65: damage to crop plant ORYSA (ORYSA [2]; [5]) | damage to crop plant ZEAMX (ZEAMX; [5]) | damage to crop plant TRZAW (TRZAW; [5])
100: herbicidal action against SETFA (SETFA [1]; [5]) | herbicidal action against SETFA (SETFA [1]; [6]) | herbicidal action against SETFA (SETFA [3]; [8])
45: damage to crop plant TRZAW (TRZAW; [7])
25: damage to crop plant ZEAMX (ZEAMX; [7])
40: damage to crop plant ORYSA (ORYSA [2]; [6]) | damage to crop plant ZEAMX (ZEAMX; [6])

CNC(=O)Nc1ccc(S(=O)(=O)NC(=O)c2ccccc2OC)cc1 [II.a.12]
0: herbicidal action against SETFA (SETFA [1]; [9]) | herbicidal action against SETFA (SETFA [1]; [10]) | herbicidal action against SETFA (SETFA [1]; [11]) | damage to crop plant ORYSA (ORYSA [2]; [9]) | damage to crop plant ORYSA (ORYSA [2]; [10]) | damage to crop plant ORYSA (ORYSA [2]; [11]) | damage to crop plant ZEAMX (ZEAMX; [9]) | damage to crop plant ZEAMX (ZEAMX; [10]) | damage to crop plant ZEAMX (ZEAMX; [11]) | herbicidal action against SETFA (SETFA [3]; [12]) | damage to crop plant TRZAW (TRZAW; [9]) | damage to crop plant TRZAW (TRZAW; [10]) | damage to crop plant TRZAW (TRZAW; [11]) | damage to crop plant ORYSA (ORYSA [4]; [12])
